Assay results as given in ChEMBL document CHEMBL3431459, “Roche carnitine palmitoyltransferase modulator screening data (supplementary data associated with the publication CHEMBL2216752)”.
In brackets after ≈: the same amount, converted by molar mass.

Tests used:
[1] = SUPPLEMENTARY: Lyophilisation Solubility Assay (LYSA); type: physicochemical; settings: read-out: Kinetic_solubility
[2] = target: T1, Carnitine O-palmitoyltransferase 1, liver isoform (Homo sapiens, UniProt P50416); test: (§1) SUPPLEMENTARY: Inhibition of Carnitine palmitoyltransferase 1, liver isoform
T1 sequence (P50416 whole entry): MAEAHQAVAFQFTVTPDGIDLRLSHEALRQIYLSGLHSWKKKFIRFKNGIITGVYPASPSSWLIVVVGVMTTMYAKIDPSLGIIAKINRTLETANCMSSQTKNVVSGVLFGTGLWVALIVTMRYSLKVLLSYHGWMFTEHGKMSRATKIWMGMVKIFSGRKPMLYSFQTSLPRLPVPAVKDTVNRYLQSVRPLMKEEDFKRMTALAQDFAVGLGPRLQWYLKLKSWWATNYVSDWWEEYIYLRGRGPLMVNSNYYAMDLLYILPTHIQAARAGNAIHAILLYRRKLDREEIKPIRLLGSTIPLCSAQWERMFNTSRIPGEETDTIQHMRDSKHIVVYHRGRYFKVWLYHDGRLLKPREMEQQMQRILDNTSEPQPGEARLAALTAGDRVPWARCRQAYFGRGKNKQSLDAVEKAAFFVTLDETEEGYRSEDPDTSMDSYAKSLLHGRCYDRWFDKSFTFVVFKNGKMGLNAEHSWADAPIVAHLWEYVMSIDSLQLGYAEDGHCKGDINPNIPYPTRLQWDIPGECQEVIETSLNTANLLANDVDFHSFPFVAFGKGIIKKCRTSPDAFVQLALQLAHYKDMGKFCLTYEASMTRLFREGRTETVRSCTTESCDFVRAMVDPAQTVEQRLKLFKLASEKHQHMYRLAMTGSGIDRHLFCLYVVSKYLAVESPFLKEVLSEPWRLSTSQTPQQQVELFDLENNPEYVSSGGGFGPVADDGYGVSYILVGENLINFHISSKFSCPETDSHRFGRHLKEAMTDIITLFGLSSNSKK

[3] = target: T2, Carnitine O-palmitoyltransferase 1, liver isoform (Rattus norvegicus, UniProt P32198); test: as §1
T2 sequence (P32198 whole entry): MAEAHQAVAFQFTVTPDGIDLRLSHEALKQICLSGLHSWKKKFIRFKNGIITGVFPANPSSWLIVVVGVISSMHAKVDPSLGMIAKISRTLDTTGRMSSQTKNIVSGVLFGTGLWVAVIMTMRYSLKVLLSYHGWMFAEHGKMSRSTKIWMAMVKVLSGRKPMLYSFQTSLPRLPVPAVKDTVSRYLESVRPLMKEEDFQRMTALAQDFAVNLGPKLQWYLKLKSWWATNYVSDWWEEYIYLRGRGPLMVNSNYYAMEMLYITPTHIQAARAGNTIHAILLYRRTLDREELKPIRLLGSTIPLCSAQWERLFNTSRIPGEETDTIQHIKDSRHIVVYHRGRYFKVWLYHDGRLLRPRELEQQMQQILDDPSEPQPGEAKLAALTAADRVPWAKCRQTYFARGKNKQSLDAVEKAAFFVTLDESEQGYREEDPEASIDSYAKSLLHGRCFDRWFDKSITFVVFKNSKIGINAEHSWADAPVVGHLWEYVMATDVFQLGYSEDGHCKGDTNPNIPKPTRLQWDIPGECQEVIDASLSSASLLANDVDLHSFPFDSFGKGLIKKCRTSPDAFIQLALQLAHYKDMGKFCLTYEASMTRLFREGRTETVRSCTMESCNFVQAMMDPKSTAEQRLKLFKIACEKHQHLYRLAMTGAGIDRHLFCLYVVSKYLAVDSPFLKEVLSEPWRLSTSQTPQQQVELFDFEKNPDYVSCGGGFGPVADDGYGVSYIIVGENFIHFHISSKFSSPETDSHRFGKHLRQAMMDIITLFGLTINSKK

[4] = SUPPLEMENTARY: PAMPA permeability assay; type: physicochemical; settings: read-out: Permeability
[5] = target: T3, Carnitine O-palmitoyltransferase 1, muscle isoform (Homo sapiens, UniProt Q92523); test: SUPPLEMENTARY: Inhibition of Carnitine palmitoyltransferase 1, muscle isoform; parameters: species or system Muscle tissue
T3 sequence (Q92523 whole entry): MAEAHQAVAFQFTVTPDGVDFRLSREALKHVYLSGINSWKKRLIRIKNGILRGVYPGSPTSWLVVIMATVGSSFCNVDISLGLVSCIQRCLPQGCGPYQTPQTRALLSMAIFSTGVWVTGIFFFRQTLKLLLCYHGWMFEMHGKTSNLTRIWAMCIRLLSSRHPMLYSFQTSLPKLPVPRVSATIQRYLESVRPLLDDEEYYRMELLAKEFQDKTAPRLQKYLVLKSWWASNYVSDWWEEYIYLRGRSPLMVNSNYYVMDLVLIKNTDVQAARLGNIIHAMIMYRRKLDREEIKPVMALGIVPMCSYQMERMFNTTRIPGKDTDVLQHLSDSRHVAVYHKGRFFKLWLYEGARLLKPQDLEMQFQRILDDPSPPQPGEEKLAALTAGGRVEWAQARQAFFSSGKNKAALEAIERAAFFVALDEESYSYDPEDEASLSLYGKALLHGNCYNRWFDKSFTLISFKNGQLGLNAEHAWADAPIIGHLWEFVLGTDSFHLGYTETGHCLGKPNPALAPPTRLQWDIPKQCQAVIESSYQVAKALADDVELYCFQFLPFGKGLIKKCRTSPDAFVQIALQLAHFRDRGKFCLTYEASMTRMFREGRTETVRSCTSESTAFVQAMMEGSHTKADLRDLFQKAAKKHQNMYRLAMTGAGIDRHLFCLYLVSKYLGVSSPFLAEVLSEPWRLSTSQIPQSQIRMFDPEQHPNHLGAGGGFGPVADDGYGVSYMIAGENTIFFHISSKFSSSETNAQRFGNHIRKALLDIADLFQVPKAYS

[6] = SUPPLEMENTARY: Lipophilicity (log D) Determination by high-throughput shake-flask; type: physicochemical; settings: octanol/water
[7] = target: T4, Carnitine O-palmitoyltransferase 2, mitochondrial (Homo sapiens, UniProt P23786); test: (§2) SUPPLEMENTARY: Inhibition of Carnitine palmitoyltransferase 2
T4 sequence (P23786 whole entry): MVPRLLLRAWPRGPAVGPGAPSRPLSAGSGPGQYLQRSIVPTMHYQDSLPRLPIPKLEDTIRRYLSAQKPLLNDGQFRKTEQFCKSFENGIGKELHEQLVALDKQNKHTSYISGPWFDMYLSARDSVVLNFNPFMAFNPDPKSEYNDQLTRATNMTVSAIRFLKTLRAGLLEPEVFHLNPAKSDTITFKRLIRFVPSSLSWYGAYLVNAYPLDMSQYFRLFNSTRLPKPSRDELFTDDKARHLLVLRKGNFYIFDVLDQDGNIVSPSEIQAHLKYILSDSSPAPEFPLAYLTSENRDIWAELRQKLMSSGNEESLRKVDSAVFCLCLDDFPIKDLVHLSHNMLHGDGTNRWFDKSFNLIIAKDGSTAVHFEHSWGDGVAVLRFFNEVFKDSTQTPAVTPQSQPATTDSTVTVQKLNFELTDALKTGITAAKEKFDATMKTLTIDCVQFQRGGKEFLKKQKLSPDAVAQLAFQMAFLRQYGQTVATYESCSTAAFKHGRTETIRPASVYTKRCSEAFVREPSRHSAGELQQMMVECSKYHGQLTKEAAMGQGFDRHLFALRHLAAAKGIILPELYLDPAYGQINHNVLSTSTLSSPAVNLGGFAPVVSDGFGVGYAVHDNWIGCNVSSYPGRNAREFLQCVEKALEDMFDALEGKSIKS

[8] = target: T5, Carnitine O-palmitoyltransferase 2, mitochondrial (Rattus norvegicus, UniProt P18886); test: as §2
T5 sequence (P18886 whole entry): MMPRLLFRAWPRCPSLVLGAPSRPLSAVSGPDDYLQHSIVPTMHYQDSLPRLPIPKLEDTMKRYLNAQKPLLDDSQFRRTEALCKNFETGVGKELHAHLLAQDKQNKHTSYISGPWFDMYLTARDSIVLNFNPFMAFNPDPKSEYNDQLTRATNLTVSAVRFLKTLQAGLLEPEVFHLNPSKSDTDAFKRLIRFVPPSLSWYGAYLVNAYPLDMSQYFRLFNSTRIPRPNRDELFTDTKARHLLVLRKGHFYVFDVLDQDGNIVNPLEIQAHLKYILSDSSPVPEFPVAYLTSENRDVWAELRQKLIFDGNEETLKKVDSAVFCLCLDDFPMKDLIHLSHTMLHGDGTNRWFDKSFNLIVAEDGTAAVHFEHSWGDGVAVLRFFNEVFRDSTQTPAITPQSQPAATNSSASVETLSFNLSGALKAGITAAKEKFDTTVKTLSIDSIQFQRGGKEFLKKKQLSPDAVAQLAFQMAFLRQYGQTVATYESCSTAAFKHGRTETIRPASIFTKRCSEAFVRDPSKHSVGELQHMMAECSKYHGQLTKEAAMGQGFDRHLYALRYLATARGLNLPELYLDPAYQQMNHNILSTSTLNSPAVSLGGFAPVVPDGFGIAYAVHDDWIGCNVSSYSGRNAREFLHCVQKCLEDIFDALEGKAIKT

Row | Structure (SMILES) | solubility kinetic [1] | IC50 [2] | IC50 [3] | Papp [4] | IC50 [5] | logD [6] | IC50 [7] | IC50 [8]
1 | COc1ccc(Cl)cc1S(=O)(=O)Nc1cc(C(=O)Nc2ccc(C(=O)O)cc2)cn(C)c1=O | 13 µg/mL (≈ 26.4 µM) | 0.127 µM | 0.0804 µM | 0.27 ×10⁻⁶ cm/s | > 100 µM | -0.34 | 3.23 µM | 42.4 µM
2 | COc1ccc(Cl)cc1S(=O)(=O)n1ccc2ccc(C(=O)Nc3ccc(CC(=O)O)cc3)cc21 | 61 µg/mL (≈ 122 µM) | 0.206 µM | 0.0828 µM | 1.98 ×10⁻⁶ cm/s | 2.21 µM | 1.1 | > 100 µM | > 100 µM
3 | Cc1cc(C)cc(S(=O)(=O)n2ccc3ccc(C(=O)Nc4ccc(C(=O)O)cc4)cc32)c1 | 1 µg/mL (≈ 2.23 µM) | 0.0353 µM | 0.0291 µM | 1.46 ×10⁻⁶ cm/s | > 100 µM | > 3 | 1.94 µM | 6.48 µM
4 | Cc1cc(C(=O)Nc2ccc(C(=O)O)cc2)cc(S(=O)(=O)Nc2cccc(C(F)(F)F)c2)c1C | 310 µg/mL (≈ 629 µM) | 0.122 µM | 0.568 µM | 0.841 ×10⁻⁶ cm/s | 30.2 µM | 1.62 | 1.82 µM | 1.35 µM
5 | COc1ccc(Cl)cc1S(=O)(=O)N1CCSc2ccc(C(=O)Nc3ccc(C(=O)O)c(F)c3)cc21 | 7 µg/mL (≈ 13 µM) | 0.084 µM | 0.0705 µM | 2.57 ×10⁻⁶ cm/s | 0.4 µM | 2.6 | 1.99 µM | 9.04 µM
6 | COc1ccc(Cl)cc1S(=O)(=O)N1CCOc2ccc(C(=O)Nc3ncc(CC(=O)O)s3)cc21 | 31 µg/mL (≈ 59.2 µM) | 0.0416 µM | 0.0386 µM | 2.18 ×10⁻⁶ cm/s | 1.43 µM | 0.05 | > 100 µM | > 100 µM

Continued, values first:

Row | solubility kinetic [1] | IC50 [2] | IC50 [3] | Papp [4] | IC50 [5] | logD [6] | IC50 [7] | IC50 [8] | Structure (SMILES)
7 | 1 µg/mL (≈ 2.37 µM) | 0.0784 µM | 0.182 µM | 2.42 ×10⁻⁶ cm/s | > 100 µM | > 3 | 2.74 µM | 42.6 µM | O=C(COc1ccccc1)N1CCCC[C@@H]1c1noc(-c2ccc3snnc3c2)n1
8 | 33 µg/mL (≈ 84.7 µM) | 0.166 µM | 0.247 µM | 8.44 ×10⁻⁶ cm/s | > 100 µM | 2.54 | 7.28 µM | 79.2 µM | N#Cc1ccc(-c2nc([C@H]3CCCCN3C(=O)COc3ccccc3)no2)cn1
9 | 50 µg/mL (≈ 112 µM) | 0.14 µM | 0.502 µM | 0.47 ×10⁻⁶ cm/s | > 100 µM | 2.25 | 17 µM | > 100 µM | O=C(COc1ccccc1)N1CCCC[C@@H]1c1noc(-c2ccc3[nH]c(=O)c(=O)[nH]c3c2)n1
10 | 8 µg/mL (≈ 18.6 µM) | 0.164 µM | 0.239 µM | 0.261 ×10⁻⁶ cm/s | > 100 µM | 1.98 | 41.8 µM | 39.8 µM | O=C(COc1ccccc1)N1CCCC[C@@H]1c1nc(-c2ccc(-c3cnc[nH]3)cc2)no1
11 | < 1 µg/mL | 0.0597 µM | 0.0598 µM | 24.5 ×10⁻⁶ cm/s | > 100 µM | 2.82 | > 100 µM | > 100 µM | O=C(COc1ccccc1)N1CCCC[C@@H]1c1nc(-c2cccc(N3CCCS3(=O)=O)c2)no1
12 | 44 µg/mL (≈ 105 µM) | 0.0354 µM | 0.475 µM | 2.43 ×10⁻⁶ cm/s | 13.2 µM | 2.51 | 69.4 µM | 15 µM | O=C(COc1ccccc1)N1CCCC[C@@H]1c1nc(-c2ccc3[nH]c(=O)[nH]c3c2)no1
13 | 69 µg/mL (≈ 154 µM) | 0.0523 µM | 0.811 µM | 2.23 ×10⁻⁶ cm/s | 97 µM | 2.84 | 57.5 µM | 62.9 µM | CCNC(=O)Nc1cccc(-c2n[nH]c([C@H]3CCCCN3C(=O)COc3ccccc3)n2)c1
14 | < 1 µg/mL | 0.288 µM | 0.5 µM | 2.48 ×10⁻⁶ cm/s | > 100 µM | > 3 | > 100 µM | > 100 µM | COc1ccc(-c2noc([C@H]3CCCCN3C(=O)C#Cc3ccccc3)n2)cc1
